Reference: patent US20230085307A1, “PYRIDAZINONE COMPOUND AND HERBICIDE” (NISSAN CHEMICAL CORPORATION, priority 2019, published 2023)

What follows are compounds tested on late watergrass (assay: Test Example 1: herbicidal activity, application before weed generation under submerged conditions (Table 16, symbol A)). Settings: 320 g/ha applied herbicide.
Format: in vivo, late watergrass (Echinochloa oryzicola)
In short: (§1)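 Emulsion formulation, water-diluted to set dose, was put onto the flooded surface (4 cm depth, alluvial soil) the same day weeds were sown and 2.5-leaf rice transplanted. After 3 weeks at 25-30 °C under glass, each species was rated 0 (≤5% kill) to 5 (≥90% kill).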

**Q.** With `Cc1nn(C)c(=O)c(-c2c(-c3ccc(OC(F)F)cc3)sc3ccc(F)cc23)c1OCC(=O)c1ccccc1` [2-305] as the compound, how does the “Herbicidal effect on A: late watergrass (grade 0-5)” value read?
**A.** 3 (Herbicidal rate of 40% or more and less than 70%)

Each compound was assayed on Japanese bulrush (assay: Test Example 1: herbicidal activity, application before weed generation under submerged conditions (Table 16, symbol B)). Settings: 320 g/ha applied herbicide.
Format: in vivo, Japanese bulrush (Schoenoplectus juncoides)
In short: as §1

**Q.** For `Cc1nn(C)c(=O)c(-c2c(-c3ccc(OC(F)F)cc3)sc3ccc(F)cc23)c1OCC(=O)c1ccccc1` [2-305], which “Herbicidal effect on B: Japanese bulrush (grade 0-5)” value is on record?
**A.** 5 (Herbicidal rate of 90% or more (almost completely withered))

Each compound was assayed on oval-leafed pondweed (assay: Test Example 1: herbicidal activity, application before weed generation under submerged conditions (Table 16, symbol C)). Settings: 320 g/ha applied herbicide.
Format: in vivo, oval-leafed pondweed (Monochoria vaginalis)
In short: as §1

**Q.** Which “Herbicidal effect on C: oval-leafed pondweed (grade 0-5)” value does the source give for `Cc1nn(C)c(=O)c(-c2c(-c3ccc(OC(F)F)cc3)sc3ccc(F)cc23)c1OCC(=O)c1ccccc1` [2-305] here?
**A.** 2 (Herbicidal rate of 20% or more and less than 40%)

These compounds were tested on barnyard grass (assay: Test Example 3: herbicidal effect by foliage application, Wagner pot (Table 18, symbol H)). Settings: amount of applied herbicide 320 g/ha.
Format: in vivo, barnyard grass (Echinochloa crus-galli)
In short: (§2)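 Plants were sown in alluvial soil held under 0.1–0.5 cm standing water and grown 14 days in a greenhouse at 25–30 °C. An emulsifiable formulation, water-diluted to the set dose, was then sprayed onto the foliage, and effects were scored three weeks later using previously defined criteria.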

**Q.** How did the “herbicidal effect on H: barnyard grass” value turn out when `Cc1nn(C)c(=O)c(-c2c(-c3ccc(OC(F)F)cc3)sc3ccc(F)cc23)c1OCC(=O)c1ccccc1` [2-305] was run?
**A.** 5 (Herbicidal rate of 90% or more (almost completely withered))

These compounds were tested on Chinese sprangletop (assay: Test Example 3: herbicidal effect by foliage application, Wagner pot (Table 18, symbol D)). Settings: amount of applied herbicide 320 g/ha.
Format: in vivo, chinese sprangletop (Leptochloa chinensis)
In short: as §2

**Q.** Which “herbicidal effect on D: Chinese sprangletop” value does the source give for `Cc1nn(C)c(=O)c(-c2c(-c3ccc(OC(F)F)cc3)sc3ccc(F)cc23)c1OCC(=O)c1ccccc1` [2-305] here?
**A.** 5 (Herbicidal rate of 90% or more (almost completely withered))

What follows are compounds tested on rice flat sedge (assay: Test Example 3: herbicidal effect by foliage application, Wagner pot (Table 18, symbol E)). Settings: amount of applied herbicide 320 g/ha.
Format: in vivo, rice flat sedge (Cyperus iria)
In short: as §2

**Q.** Which “herbicidal effect on E: rice flat sedge” value does the source give for `Cc1nn(C)c(=O)c(-c2c(-c3ccc(OC(F)F)cc3)sc3ccc(F)cc23)c1OCC(=O)c1ccccc1` [2-305] here?
**A.** 3 (Herbicidal rate of 40% or more and less than 70%)

What follows are compounds tested on Italian ryegrass (assay: Test Example 4: herbicidal effect by soil treatment (Table 19, symbol K)). Settings: amount of applied herbicide 320 g/ha.
Format: in vivo, Italian ryegrass (Lolium multiflorum)
In short: (§3)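 Emulsion of test compound, water-diluted to predetermined amount, sprayed on soil after sowing (seed depth ~1.5 cm, sterilized diluvial soil). Greenhouse, 25–30° C. Effect graded at three weeks post-spray.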

**Q.** `Cc1nn(C)c(=O)c(-c2c(-c3ccc(OC(F)F)cc3)sc3ccc(F)cc23)c1OCC(=O)c1ccccc1` [2-305] was tested. Which “herbicidal effect on K: Italian ryegrass” value did it give?
**A.** 0 (Herbicidal rate of 5% or less (almost no effect))

Each compound was assayed on windgrass (assay: Test Example 4: herbicidal effect by soil treatment (Table 19, symbol L)). Settings: amount of applied herbicide 320 g/ha.
Format: in vivo, windgrass (Apera spica-venti)
In short: as §3

**Q.** Which “herbicidal effect on L: windgrass” value does the source give for `Cc1nn(C)c(=O)c(-c2c(-c3ccc(OC(F)F)cc3)sc3ccc(F)cc23)c1OCC(=O)c1ccccc1` [2-305] here?
**A.** 0 (Herbicidal rate of 5% or less (almost no effect))

The compounds below were run on lambsquarters (assay: Test Example 4: herbicidal effect by soil treatment (Table 19, symbol O)). Settings: amount of applied herbicide 320 g/ha.
Format: in vivo, lambsquarters (Chenopodium album)
In short: as §3

**Q.** How did the “herbicidal effect on O: lambsquarters” value turn out when `Cc1nn(C)c(=O)c(-c2c(-c3ccc(OC(F)F)cc3)sc3ccc(F)cc23)c1OCC(=O)c1ccccc1` [2-305] was run?
**A.** 3 (Herbicidal rate of 40% or more and less than 70%)

The compounds below were run on chickweed (assay: Test Example 4: herbicidal effect by soil treatment (Table 19, symbol P)). Settings: amount of applied herbicide 320 g/ha.
Format: in vivo, common chickweed (Stellaria media)
In short: as §3

**Q.** For `Cc1nn(C)c(=O)c(-c2c(-c3ccc(OC(F)F)cc3)sc3ccc(F)cc23)c1OCC(=O)c1ccccc1` [2-305], which “herbicidal effect on P: chickweed” value is on record?
**A.** 1 (Herbicidal rate of 5% or more and less than 20%)

The compounds below were run on persian speedwell (assay: Test Example 4: herbicidal effect by soil treatment (Table 19, symbol R)). Settings: amount of applied herbicide 320 g/ha.
Format: in vivo, Persian speedwell (Veronica persica)
In short: as §3

**Q.** With `Cc1nn(C)c(=O)c(-c2c(-c3ccc(OC(F)F)cc3)sc3ccc(F)cc23)c1OCC(=O)c1ccccc1` [2-305] as the compound, how does the “herbicidal effect on R: persian speedwell” value read?
**A.** 3 (Herbicidal rate of 40% or more and less than 70%)

Each compound was assayed on southern crabgrass (assay: Test Example 5: herbicidal effect by foliage application, plastic box (Table 20, symbol F)). Settings: foliage application, AAH 320 g/ha, evaluated three weeks after application.
Format: in vivo, southern crabgrass (Digitaria ciliaris)
In short: (§4)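 Post-emergence foliar test in sterilized diluvial soil. Compound applied as water-diluted emulsion at a predetermined rate to 14-day-old plants; evaluation at three weeks.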

**Q.** `Cc1nn(C)c(=O)c(-c2c(-c3ccc(OC(F)F)cc3)sc3ccc(F)cc23)c1OCC(=O)c1ccccc1` [2-305] was tested. Which “F: southern crabgrass, herbicidal effect (criteria 0-5)” value did it give?
**A.** 1 (Herbicidal rate of 5% or more and less than 20%)

The compounds below were run on barnyard grass (assay: Test Example 5: herbicidal effect by foliage application, plastic box (Table 20, symbol H)). Settings: foliage application, AAH 320 g/ha, evaluated three weeks after application.
Format: in vivo, barnyard grass (Echinochloa crus-galli)
In short: as §4

**Q.** With `Cc1nn(C)c(=O)c(-c2c(-c3ccc(OC(F)F)cc3)sc3ccc(F)cc23)c1OCC(=O)c1ccccc1` [2-305] as the compound, how does the “H: barnyard grass, herbicidal effect (criteria 0-5)” value read?
**A.** 5 (Herbicidal rate of 90% or more (almost completely withered))

These compounds were tested on wild oat (assay: Test Example 5: herbicidal effect by foliage application, plastic box (Table 20, symbol I)). Settings: foliage application, AAH 320 g/ha, evaluated three weeks after application.
Format: in vivo, wild oat (Avena fatua)
In short: as §4

**Q.** Which “I: wild oat, herbicidal effect (criteria 0-5)” value does the source give for `Cc1nn(C)c(=O)c(-c2c(-c3ccc(OC(F)F)cc3)sc3ccc(F)cc23)c1OCC(=O)c1ccccc1` [2-305] here?
**A.** 1 (Herbicidal rate of 5% or more and less than 20%)

These compounds were tested on blackgrass (assay: Test Example 5: herbicidal effect by foliage application, plastic box (Table 20, symbol J)). Settings: foliage application, AAH 320 g/ha, evaluated three weeks after application.
Format: in vivo, blackgrass (Alopecurus myosuroides)
In short: as §4

**Q.** With `Cc1nn(C)c(=O)c(-c2c(-c3ccc(OC(F)F)cc3)sc3ccc(F)cc23)c1OCC(=O)c1ccccc1` [2-305] as the compound, how does the “J: blackgrass, herbicidal effect (criteria 0-5)” value read?
**A.** 0 (Herbicidal rate of 5% or less (almost no effect))

These compounds were tested on windgrass (assay: Test Example 5: herbicidal effect by foliage application, plastic box (Table 20, symbol L)). Settings: foliage application, AAH 320 g/ha, evaluated three weeks after application.
Format: in vivo, windgrass (Apera spica-venti)
In short: as §4

**Q.** `Cc1nn(C)c(=O)c(-c2c(-c3ccc(OC(F)F)cc3)sc3ccc(F)cc23)c1OCC(=O)c1ccccc1` [2-305] was tested. Which “L: windgrass, herbicidal effect (criteria 0-5)” value did it give?
**A.** 1 (Herbicidal rate of 5% or more and less than 20%)

These compounds were tested on velvetleaf (assay: Test Example 5: herbicidal effect by foliage application, plastic box (Table 20, symbol M)). Settings: foliage application, AAH 320 g/ha, evaluated three weeks after application.
Format: in vivo, velvetleaf (Abutilon theophrasti)
In short: as §4

**Q.** For `Cc1nn(C)c(=O)c(-c2c(-c3ccc(OC(F)F)cc3)sc3ccc(F)cc23)c1OCC(=O)c1ccccc1` [2-305], which “M: velvetleaf, herbicidal effect (criteria 0-5)” value is on record?
**A.** 5 (Herbicidal rate of 90% or more (almost completely withered))

The compounds below were run on redroot pigweed (assay: Test Example 5: herbicidal effect by foliage application, plastic box (Table 20, symbol N)). Settings: foliage application, AAH 320 g/ha, evaluated three weeks after application.
Format: in vivo, redroot pigweed (Amaranthus retroflexus)
In short: as §4

**Q.** `Cc1nn(C)c(=O)c(-c2c(-c3ccc(OC(F)F)cc3)sc3ccc(F)cc23)c1OCC(=O)c1ccccc1` [2-305] was tested. Which “N: redroot pigweed, herbicidal effect (criteria 0-5)” value did it give?
**A.** 5 (Herbicidal rate of 90% or more (almost completely withered))

Each compound was assayed on chickweed (assay: Test Example 5: herbicidal effect by foliage application, plastic box (Table 20, symbol P)). Settings: foliage application, AAH 320 g/ha, evaluated three weeks after application.
Format: in vivo, common chickweed (Stellaria media)
In short: as §4

**Q.** For `Cc1nn(C)c(=O)c(-c2c(-c3ccc(OC(F)F)cc3)sc3ccc(F)cc23)c1OCC(=O)c1ccccc1` [2-305], which “P: chickweed, herbicidal effect (criteria 0-5)” value is on record?
**A.** 5 (Herbicidal rate of 90% or more (almost completely withered))
